Assay results as given in patent publication US10851069B2, “Compositions of crystallized hydrophobic compounds and methods of making and using same” (Massachusetts Institute of Technology, priority 2016, dated 2020).

How the values were obtained:
[1] = test system: C57BL/6 mice; experiment: Crystalline drug-loaded alginate capsules, long-term IP/SC implantation, prevention of fibrosis; assay type: in vivo; conditions: crystalline form in alginate capsules, retrieved after 1, 3 and 6 months from IP space
From the text: Lead compounds identified by screening the amorphous formulations (e.g., compounds of Formulae I-X, particularly LY215799, Dx, Curcumin, GW2580, QNZ and Ki20227) were studied for long-term release and prevention of fibrosis following encapsulation in crystalline form and implantation into the intraperitoneal (IP) space of C57BL/6 mice for long term testing. […] Drug extraction analysis by HPLC also determined that notable percentages (e.g., more than 50%) of the loaded drug remained within the retrieved capsules (FIG. 22D), particularly in the subcutaneous implanted samples. […] In contrast, capsules retrieved from the IP space 6 months post-implantation were identified with only 2-40% of the loaded drug remaining within the retrieved capsules.
All animal protocols were approved by the MIT Committee on Animal Care, and all surgical procedures and post-operative care was supervised by MIT Division of Comparative Medicine veterinary staff. Immune-competent male non-diabetic or STZ-induced diabetic C57BL/6 mice (Jackson Laboratory, Bar Harbor, Me.) were anesthetized with 3% isoflurane in oxygen and had their abdomens shaved and sterilized using betadine and isopropanol. Preoperatively, all mice also received a 0.05 mg/kg dose of buprenorphine subcutaneously as a pre-surgical analgesic, along with 0.3 mL of 0.9% saline subcutaneously to prevent dehydration. A […] incision was made along the midline of the abdomen and the peritoneal lining was exposed using blunt dissection. The peritoneal wall was then grasped with forceps and a 0.5-1 mm incision was made along the linea alba. A desired volume of spheres (all materials without islets, as well as SLG20 spheres encapsulating rat islets) were then loaded into a sterile pipette and implanted into the peritoneal cavity through the incision. The incision was then closed using 5-0 taper-tipped polydioxanone (PDS II) absorbable sutures. The skin was then closed over the incision using a wound clip and tissue glue.
At desired time points post-implantation or transplantation (with encapsulated islets), as specified in figures, mice were euthanized by CO2 administration, followed by cervical dislocation. In certain instances, 5 ml of ice cold PBS was first injected in order perform an intraperitoneal lavage to rinse out and collect free-floating intraperitoneal immune cells. An incision was then made using the forceps and scissors along the abdomen skin and peritoneal wall, and intraperitoneal lavage volumes were pipetted out into fresh 15 ml falcon tubes (each prepared with 5 ml of RPMI cell culture media). Next, a wash bottle tip was inserted into the abdominal cavity. KREBS buffer was then used to wash out all material spheres from the abdomen and into petri dishes for collection. After ensuring all the spheres were washed out or manually retrieved (if fibrosed directly to intraperitoneal tissues), they were transferred into 50 mL conical tubes for downstream processing and imaging. After intraperitoneal lavage and sphere retrieval, remaining fibrosed intraperitoneal tissues were also excised for downstream FACS and expression analyses.
For phase contrast imaging, retrieved materials were gently washed using Krebs buffer and transferred into 35 mm petri dishes for phase contrast microscopy using an Evos X1 microscope (Advanced Microscopy Group).
Immunofluorescence imaging was used to determine immune populations attached to spheres. […]

[2] = test system: C57BL/6 mice; experiment: Naked GW2580 crystals co-injected SC with polystyrene or glass spheres, 2 weeks; assay type: in vivo
Description: Naked crystals of GW2580 or saline-only (no drug control) were delivered intraperitoneally along with 500 μm alginate spheres for 2 weeks to C57BL/6 mice. […] Brightfield and fluorescence imaging was used to emphasize the respective presence or lack of fibrotic overgrowth on retrieved alginate spheres from either saline (control) or crystalline GW2580 treatment groups (FIG. 17C). […] GW2580 crystal testing (at doses of 0.5 and 5 mg/SC site) was also extended into the SC implant space with other immunogenic materials, ceramic glass (GL) and polymer polystyrene (PS). […] Retrieved materials where fixed overnight using 4% paraformaldehyde at 4° C. After fixation, alginate sphere or retrieved tissue samples were washed using 70% alcohol. The materials where then mixed with 4 degrees calcium-cooled Histogel (VWR, CA #60872-486). After the molds hardened, the blocks were processed for paraffin embedding, sectioning and staining according to standard histological methods. Single-cell suspensions of freshly excised tissues were prepared using a gentle MACS Dissociator (Miltenyi Biotec, Auburn, Calif.) according to the manufacturer's protocol. Single-cell suspensions were prepared in a passive PEB dissociation buffer (1×PBS, pH 7.2, 0.5% BSA, and 2 mM EDTA) and suspensions were passed through 70 μm filters (Cat. #22363548, Fisher Scientific, Pittsburgh, Pa.). This process removed the majority of cells adhered to the surface (>90%). All tissue and material sample-derived, single-cell populations were then subjected to red blood cell lysis with 5 ml of 1×RBC lysis buffer (Cat. #00-4333, eBioscience, San Diego, Calif., USA) for 5 min at 4° C. The reaction was terminated by the addition of 20 ml of sterile 1×PBS. The cells remaining were centrifuged at 300-400 g at 4° C. and resuspended in a minimal volume (˜50 μl) of eBioscience Staining Buffer (cat. #00-4222) for antibody incubation. All samples were then co-stained in the dark for 25 min at 4° C. with two of the fluorescently tagged monoclonal antibodies specific for the cell markers CD68 (1 μl (0.5 μg) per sample; CD68-Alexa647, Clone FA-11, Cat. #11-5931, BioLegend), Ly-6G (Gr-1) (1 μl (0.5 μg) per sample; Ly-6G-Alexa-647, Clone RB6-8C5, Cat. #108418, BioLegend), CD11b (1 μl (0.2 μg) per sample; or CD11b-Alexa-488, Clone M1/70, Cat. #101217, BioLegend). For alpha smooth muscle actin (fibrosis) analysis, additional cell aliquots were also fixed in 1% paraformaldehyde and permeabilized with 0.1% triton X-100 before being stained with Cy3-conjugated anti-mouse αSM actin antibody (1:100) (Sigma Aldrich, St. Louis, Mo.). Two ml of eBioscience Flow Cytometry Staining Buffer (cat. #00-4222, eBioscience) was then added, and the samples were centrifuged at 400-500 g for 5 min at 4° C. […]

SMILES: COc1ccc(COc2ccc(Cc3cnc(N)nc3N)cc2OC)cc1 [GW2580, 5-[[3-Methoxy-4-[(4-methoxyphenyl)methoxy]phenyl]methyl]-2,4-pyrimidinediamine]
- fibrosis by phase contrast imaging and confocal microscopy [1]: fibrosis free
- responding macrophages (FACS) ([2]; SC-implanted PS and GL 0.5 mm spheres, 2 weeks): significant reductions in responding macrophages
- drug extracted from nearby tissue ([2]; all implant groups, 2 weeks): large quantities of remaining drug
- anti-fibrotic effect ([2]; ceramic glass (GL) spheres, SC, no histology): anti-fibrotic effects were also observed
- anti-fibrotic effect (H&E and Masson's Trichrome) ([2]; polystyrene (PS) spheres, SC, 0.5 and 5 mg/SC site, 2 weeks): significant anti-fibrotic effects
